# Test results published in publication PMC11149917, “Translational and Therapeutic Evaluation of RAS-GTP Inhibition by RMC-6236 in RAS-Driven Cancers” (Cancer Discovery, 2024).
# Read-outs that look alike come from different tables or passages of the source.
# Test: Mouse blood and tissue PK (LC/MS-MS)
# Assay type: in vivo
# Conditions: for AUC(0-t): read-out: Blood AUClast
# Description: For single-dose PKPD study, mice were randomized and assigned into groups (n = 3/dose/time point). […] Blood and tissues, including the tumor, brain, colon, ear skin, and muscle, were harvested at indicated time points. […] The whole blood, tumor, brain, colon, and ear skin concentrations of RMC-6236 were determined using liquid chromatography–tandem mass spectrometry (LC/MS-MS) methods. […] After thorough mixing and centrifugation, the supernatant was diluted with water or directly analyzed on a Sciex 5500 or Sciex 6500+ triple quadrupole mass spectrometer equipped with an ACQUITY or Shimadzu UPLC system. […] Bioanalysis on blood and tissue samples from xenograft models was run at Pharmaron and Wuxi AppTec. Concentrations reported as below the quantification limit were treated as zero for PK analysis. PK parameters were calculated by noncompartmental analysis of the concentration–time profiles using Phoenix WinNonLin (version 8.3 Certara). Apparent terminal elimination half-life (t1/2) values were calculated as ln(2)/k, where k represents the terminal elimination rate constant. Area under the concentration–time curve (AUC) values were estimated using a linear trapezoidal method. AUClast values were calculated from the dosing time to the last quantifiable concentration. Maximum concentration (Cmax) was recorded as observed.
# [1] = mouse, whole blood, oral, 10 mg/kg, Model Validation Dataset, 10mg/kg_study6, read-out: Blood Concentration
# [2] = mouse, whole blood, oral, 25 mg/kg, Model Development Dataset, 25mg/kg_study8, read-out: Blood Concentration
# [3] = mouse, whole blood, oral, 25 mg/kg, Model Development Dataset, 25mg/kg_study8r (doses every 24 h, 0-[…])
# [4] = mouse, whole blood, oral, 25 mg/kg, Model Validation Dataset, 25mg/kg_study6, read-out: Blood Concentration
# [5] = mouse, whole blood, oral, 40 mg/kg, Model Development Dataset, 40mg/kg_study8, read-out: Blood Concentration
# [6] = mouse, whole blood, oral, 40 mg/kg, Model Development Dataset, 40mg/kg_study8r (doses every 24 h, 0-[…])
# [7] = mouse, whole blood, oral, 50 mg/kg, Model Validation Dataset, 50mg/kg_study6, read-out: Blood Concentration
# [8] = mouse, whole blood, po, 1 mg/kg, NCI-H441 #1 (1 mg/kg), QD x 28 days
# [9] = mouse, whole blood, po, 3 mg/kg, NCI-H441 (3 mg/kg), single dose
# [10] = mouse, whole blood, po, 5 mg/kg, NCI-H441 #1 (5 mg/kg), QD x 28 days
# [11] = mouse, whole blood, po, 10 mg/kg, NCI-H441 #1 (10 mg/kg), QD x 28 days
# [12] = mouse, whole blood, po, 10 mg/kg, NCI-H441 (10 mg/kg), single dose
# [13] = mouse, whole blood, po, 25 mg/kg, HPAC (25 mg/kg), single dose
# [14] = mouse, whole blood, po, 25 mg/kg, KP-4 (25 mg/kg), single dose
# [15] = mouse, whole blood, po, 25 mg/kg, NCI-H358 (25 mg/kg), single dose
# [16] = mouse, whole blood, po, 25 mg/kg, NCI-H441 #1 (25 mg/kg), QD x 28 days
# [17] = mouse, whole blood, po, 25 mg/kg, NCI-H441 #2 (25 mg/kg), QD x 10 days
# [18] = mouse, whole blood, po, 25 mg/kg, NCI-H441 (25 mg/kg), single dose
# [19] = mouse, whole blood, po, 25 mg/kg, NCI-H2122 (25 mg/kg), single dose
smiles,measurement,setting,value
CCn1c(-c2cc(N3CCN(C)CC3)cnc2[C@H](C)OC)c2c3cc(ccc31)-c1csc(n1)C[C@H](NC(=O)[C@H]1C[C@@H]1C)C(=O)N1CCC[C@H](N1)C(=O)OCC(C)(C)C2 [RMC-6236],concentration at 24 h,"mouse, tumor, oral, 50 mg/kg, Model Validation Dataset, 50mg/kg_study6, 24 h, read-out: Tumor Concentration",2100 nM
same,concentration at 48 h,"mouse, tumor, oral, 50 mg/kg, Model Validation Dataset, 50mg/kg_study6, 48 h, read-out: Tumor Concentration",1240 nM
same,concentration at 72 h,"mouse, tumor, oral, 50 mg/kg, Model Validation Dataset, 50mg/kg_study6, 72 h",621 nM
same,concentration at 8 h,"mouse, tumor, oral, 50 mg/kg, NCI-H441 xenograft tumor, study NCI-H441#6, 50 mg/kg, 8h, read-out: RMC-6236 (nM) Tumor",4770 nM
same,concentration at 24 h,"mouse, tumor, oral, 50 mg/kg, NCI-H441 xenograft tumor, study NCI-H441#6, 50 mg/kg, 24h, read-out: RMC-6236 (nM) Tumor",1960 nM
same,concentration at 8 h,"mouse, tumor, oral, 100 mg/kg, KP-4, study KP-4 #4, 100 mg/kg, 8h, read-out: RMC-6236 (nM) Tumor",10200 nM
same,concentration at 24 h,"mouse, tumor, oral, 100 mg/kg, KP-4, study KP-4 #4, 100 mg/kg, 24h, read-out: RMC-6236 (nM) Tumor",7000 nM
same,concentration at 24 h,"mouse, tumor, oral, 100 mg/kg, NCI-H441 xenograft tumor, study NCI-H441#6, 100 mg/kg, 24h, read-out: RMC-6236 (nM) Tumor",3020 nM
same,concentration at 48 h,"mouse, tumor, oral, 100 mg/kg, NCI-H441 xenograft tumor, study NCI-H441#6, 100 mg/kg, 48h, read-out: RMC-6236 (nM) Tumor",2060 nM
same,half-life,"mouse, tumor, po, 3 mg/kg, NCI-H441 (3 mg/kg), single dose, read-out: Tumor t1/2 (converted)",1030 min
same,half-life,"mouse, tumor, po, 25 mg/kg, HPAC (25 mg/kg), single dose, read-out: Tumor t1/2 (converted)",840 min
same,half-life,"mouse, tumor, po, 25 mg/kg, KP-4 (25 mg/kg), single dose, read-out: Tumor t1/2 (converted)",678 min
same,half-life,"mouse, tumor, po, 25 mg/kg, NCI-H358 (25 mg/kg), single dose, read-out: Tumor t1/2 (converted)",612 min
same,half-life,"mouse, tumor, po, 25 mg/kg, NCI-H441 (25 mg/kg), single dose, read-out: Tumor t1/2 (converted)",2770 min
same,concentration at 0.5 h,"mouse, whole blood, oral, 10 mg/kg, Model Validation Dataset, 10mg/kg_study6",435 nM
same,concentration at 1 h,[1],642 nM
same,concentration at 2 h,[1],642 nM
same,concentration at 4 h,[1],441 nM
same,concentration at 8 h,"mouse, whole blood, oral, 10 mg/kg, Model Validation Dataset, 10mg/kg_study6, 8 h, read-out: Blood Concentration",309 nM
same,concentration at 24 h,"mouse, whole blood, oral, 10 mg/kg, Model Validation Dataset, 10mg/kg_study6, 24 h, read-out: Blood Concentration",3.91 nM
same,Cmax,"mouse, whole blood, oral, 10 mg/kg, Naïve Mice #1 (10 mg/kg), single dose",744 ng/mL
same,concentration at 0.5 h,"mouse, whole blood, oral, 25 mg/kg, Model Development Dataset, 25mg/kg_study8",806 nM
same,concentration at 1 h,[2],979 nM
same,concentration at 2 h,[2],1410 nM
same,concentration at 4 h,[2],1430 nM
same,concentration at 8 h,"mouse, whole blood, oral, 25 mg/kg, Model Development Dataset, 25mg/kg_study8, 8 h, read-out: Blood Concentration",802 nM
same,concentration at 24 h,"mouse, whole blood, oral, 25 mg/kg, Model Development Dataset, 25mg/kg_study8, 24 h, read-out: Blood Concentration",7.71 nM
same,concentration at 216.5 h,[3],1180 nM
same,concentration at 220 h,[3],849 nM
same,concentration at 240 h,"mouse, whole blood, oral, 25 mg/kg, Model Development Dataset, 25mg/kg_study8r (doses every 24 h, 0-[…]), read-out: Blood Concentration",5.4 nM
same,concentration at 0.5 h,"mouse, whole blood, oral, 25 mg/kg, Model Validation Dataset, 25mg/kg_study6",598 nM
same,concentration at 1 h,[4],885 nM
same,concentration at 2 h,[4],1540 nM
same,concentration at 4 h,[4],1140 nM
same,concentration at 8 h,"mouse, whole blood, oral, 25 mg/kg, Model Validation Dataset, 25mg/kg_study6, 8 h, read-out: Blood Concentration",755 nM
same,concentration at 24 h,"mouse, whole blood, oral, 25 mg/kg, Model Validation Dataset, 25mg/kg_study6, 24 h, read-out: Blood Concentration",15.6 nM
same,concentration at 0.5 h,"mouse, whole blood, oral, 40 mg/kg, Model Development Dataset, 40mg/kg_study8",1320 nM
same,concentration at 1 h,[5],1580 nM
same,concentration at 2 h,[5],2770 nM
same,concentration at 4 h,[5],1480 nM
same,concentration at 8 h,"mouse, whole blood, oral, 40 mg/kg, Model Development Dataset, 40mg/kg_study8, 8 h, read-out: Blood Concentration",1200 nM
same,concentration at 24 h,"mouse, whole blood, oral, 40 mg/kg, Model Development Dataset, 40mg/kg_study8, 24 h, read-out: Blood Concentration",8 nM
same,concentration at 216.5 h,[6],1760 nM
same,concentration at 220 h,[6],1550 nM
same,concentration at 240 h,"mouse, whole blood, oral, 40 mg/kg, Model Development Dataset, 40mg/kg_study8r (doses every 24 h, 0-[…]), read-out: Blood Concentration",7.54 nM
same,concentration at 0.5 h,"mouse, whole blood, oral, 50 mg/kg, Model Validation Dataset, 50mg/kg_study6",1420 nM
same,concentration at 1 h,[7],1820 nM
same,concentration at 2 h,[7],2770 nM
same,concentration at 4 h,[7],1980 nM
same,concentration at 8 h,"mouse, whole blood, oral, 50 mg/kg, Model Validation Dataset, 50mg/kg_study6, 8 h, read-out: Blood Concentration",1350 nM
same,concentration at 24 h,"mouse, whole blood, oral, 50 mg/kg, Model Validation Dataset, 50mg/kg_study6, 24 h, read-out: Blood Concentration",22.4 nM
same,concentration at 48 h,"mouse, whole blood, oral, 50 mg/kg, Model Validation Dataset, 50mg/kg_study6, 48 h, read-out: Blood Concentration",2.76 nM
same,Cmax,"mouse, whole blood, oral, 50 mg/kg, Naïve Mice #1 (50 mg/kg), single dose",2960 ng/mL
same,Cmax,[8],79.2 ng/mL
same,AUC(0-t),[8],384 ng·h/mL
same,half-life,"mouse, whole blood, po, 1 mg/kg, NCI-H441 #1 (1 mg/kg), QD x 28 days, read-out: Blood t1/2 (converted)",174 min
same,Cmax,[9],219 ng/mL
same,AUC(0-t),[9],1180 ng·h/mL
same,Cmax,[10],286 ng/mL
same,AUC(0-t),[10],1330 ng·h/mL
same,half-life,"mouse, whole blood, po, 5 mg/kg, NCI-H441 #1 (5 mg/kg), QD x 28 days, read-out: Blood t1/2 (converted)",245 min
same,Cmax,[11],533 ng/mL
same,AUC(0-t),[11],2780 ng·h/mL
same,half-life,"mouse, whole blood, po, 10 mg/kg, NCI-H441 #1 (10 mg/kg), QD x 28 days, read-out: Blood t1/2 (converted)",193 min
same,Cmax,[12],520 ng/mL
same,AUC(0-t),[12],3810 ng·h/mL
same,half-life,"mouse, whole blood, po, 10 mg/kg, NCI-H441 (10 mg/kg), single dose, read-out: Blood t1/2 (converted)",176 min
same,Cmax,[13],1310 ng/mL
same,AUC(0-t),[13],12000 ng·h/mL
same,half-life,"mouse, whole blood, po, 25 mg/kg, HPAC (25 mg/kg), single dose, read-out: Blood t1/2 (converted)",157 min
same,Cmax,[14],1460 ng/mL
same,AUC(0-t),[14],12500 ng·h/mL
same,half-life,"mouse, whole blood, po, 25 mg/kg, KP-4 (25 mg/kg), single dose, read-out: Blood t1/2 (converted)",157 min
same,Cmax,[15],1150 ng/mL
same,AUC(0-t),[15],8720 ng·h/mL
same,half-life,"mouse, whole blood, po, 25 mg/kg, NCI-H358 (25 mg/kg), single dose, read-out: Blood t1/2 (converted)",167 min
same,Cmax,[16],1250 ng/mL
same,AUC(0-t),[16],6950 ng·h/mL
same,half-life,"mouse, whole blood, po, 25 mg/kg, NCI-H441 #1 (25 mg/kg), QD x 28 days, read-out: Blood t1/2 (converted)",208 min
same,Cmax,[17],1080 ng/mL
same,AUC(0-t),[17],6660 ng·h/mL
same,half-life,"mouse, whole blood, po, 25 mg/kg, NCI-H441 #2 (25 mg/kg), QD x 10 days, read-out: Blood t1/2 (converted)",160 min
same,Cmax,[18],1250 ng/mL
same,AUC(0-t),[18],9060 ng·h/mL
same,half-life,"mouse, whole blood, po, 25 mg/kg, NCI-H441 (25 mg/kg), single dose, read-out: Blood t1/2 (converted)",187 min
same,Cmax,[19],1110 ng/mL
same,AUC(0-t),[19],7930 ng·h/mL
same,half-life,"mouse, whole blood, po, 25 mg/kg, NCI-H2122 (25 mg/kg), single dose, read-out: Blood t1/2 (converted)",270 min
same,RMC-6236 (nM) Tumor,"sheet Ear Skin, model Capan-2, study Capan-2 #3_PHA 2023, 3 mg/kg, 48h",BQL
same,RMC-6236 (nM) Tumor,"sheet colon, Capan-2, Capan-2 #3_PHA 2023, 3 mg/kg, 24h",BQL
same,RMC-6236 (nM) Tumor,"sheet colon, Capan-2, Capan-2 #3_PHA 2023, 3 mg/kg, 48h",BQL
same,RMC-6236 (nM) Tumor,"sheet colon, Capan-2, Capan-2 #3_PHA 2023, 10 mg/kg, 48h",BQL
same,RMC-6236 (nM) Tumor,"sheet colon, Capan-2, Capan-2 #3_PHA 2023, 25 mg/kg, 48h",BQL
same,RMC-6236 (nM) Tumor,"sheet colon, Capan-2, Capan-2 #3_PHA 2023, 50 mg/kg, 48h",BQL
same,RMC-6236 (nM) Tumor,"sheet colon, Capan-2, Capan-2 #3_PHA 2023, 100 mg/kg, 48h",BQL
same,RMC-6236 (nM) Tumor,"sheet colon, KP-4, KP-4 #5, 25 mg/kg, 48h",BQL
